Experimental findings from patent publication US6638973B2, “Taxane formulations” (FSU Research Foundation, Inc., priority 2000, dated 2003) are described below.

The test system of the first experiment is HCT116 cells. Put plainly: In vitro cytotoxicity measured by the cell colony formation assay. The conditions noted are these: HCT116 cells, 72 h incubation with drug, colonies counted after 7 days; ID50 = drug concentration producing 50% inhibition of colony formation; read-out: IN VITRO ID 50 (nm) HCT116. The experiment is classed as cell-based. In outline: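 Colony-forming survival was scored 7 days after a 72 h, 37 °C compound exposure followed by washout into fresh medium.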
As to `COC(=O)O[C@H]1C[C@H]2OC[C@@]2(OC(C)=O)C2[C@H](OC(=O)c3ccccc3)[C@]3(O)C[C@H](OC(=O)[C@H](O)[C@@H](NC(=O)c4cccs4)c4cccs4)C(C)=C([C@@H](O)C(=O)[C@@]21C)C3(C)C` (stereo partly shown) [Compound 4424], the IC50 is < 1 nM.

With `COC(=O)O[C@H]1C[C@H]2OC[C@@]2(OC(C)=O)C2[C@H](OC(=O)c3ccccc3)[C@]3(O)C[C@H](OC(=O)[C@H](O)[C@@H](NC(=O)OC(C)(C)C)c4ccoc4)C(C)=C([C@@H](O)C(=O)[C@@]21C)C3(C)C` (stereo partly shown) [Compound 4434], the IC50 is < 1 nM.

Consider `COC(=O)O[C@H]1C[C@H]2OC[C@@]2(OC(C)=O)C2[C@H](OC(=O)c3ccccc3)[C@]3(O)C[C@H](OC(=O)[C@H](O)[C@@H](NC(=O)OC(C)(C)C)c4ccsc4)C(C)=C([C@@H](O)C(=O)[C@@]21C)C3(C)C` (stereo partly shown) [Compound 4444], for which the IC50 was < 1 nM.

As to `CCOC(=O)O[C@H]1C[C@H]2OC[C@@]2(OC(C)=O)C2[C@H](OC(=O)c3ccccc3)[C@]3(O)C[C@H](OC(=O)[C@H](O)[C@@H](NC(=O)c4cccs4)c4cccs4)C(C)=C([C@@H](O)C(=O)[C@@]21C)C3(C)C` (stereo partly shown) [Compound 4455], the IC50 was < 1 nM.

As for `CCOC(=O)O[C@H]1C[C@H]2OC[C@@]2(OC(C)=O)C2[C@H](OC(=O)c3ccccc3)[C@]3(O)C[C@H](OC(=O)[C@H](O)[C@@H](NC(=O)OC(C)(C)C)c4ccoc4)C(C)=C([C@@H](O)C(=O)[C@@]21C)C3(C)C` (stereo partly shown) [Compound 4464], the IC50 is < 1 nM.

For the molecule `COC(=O)O[C@H]1C[C@H]2OC[C@@]2(OC(C)=O)C2[C@H](OC(=O)c3ccccc3)[C@]3(O)C[C@H](OC(=O)[C@H](O)[C@@H](NC(=O)OC(C)(C)C)c4ccsc4)C(C)=C([C@@H](O)C(=O)[C@@]21C)C3(C)C` (stereo partly shown) [Compound 4474], the IC50 was < 1 nM.

Consider `COC(=O)O[C@H]1C[C@H]2OC[C@@]2(OC(C)=O)C2[C@H](OC(=O)c3ccccc3)[C@]3(O)C[C@H](OC(=O)[C@H](O)[C@H](C=C(C)C)NC(=O)OC(C)(C)C)C(C)=C([C@@H](O)C(=O)[C@@]21C)C3(C)C` (stereo partly shown) [Compound 4484], for which the IC50 was < 1 nM.

`CCOC(=O)O[C@H]1C[C@H]2OC[C@@]2(OC(C)=O)C2[C@H](OC(=O)c3ccccc3)[C@]3(O)C[C@H](OC(=O)[C@H](O)[C@@H](NC(=O)OC(C)(C)C)c4ccsc4)C(C)=C([C@@H](O)C(=O)[C@@]21C)C3(C)C` (stereo partly shown) [Compound 4500]: the IC50 is < 1 nM.

With `CC(=O)O[C@H]1C[C@H]2OC[C@@]2(OC(C)=O)C2[C@H](OC(=O)c3ccccc3)[C@]3(O)C[C@H](OC(=O)[C@H](O)[C@@H](NC(=O)OCC(C)C)c4ccsc4)C(C)=C([C@@H](O)C(=O)[C@@]21C)C3(C)C` (stereo partly shown) [Compound 4515], the IC50 is < 10 nM.

Regarding `CCOC(=O)O[C@H]1C[C@H]2OC[C@@]2(OC(C)=O)C2[C@H](OC(=O)c3ccccc3)[C@]3(O)C[C@H](OC(=O)[C@H](O)[C@H](C=C(C)C)NC(=O)OC(C)(C)C)C(C)=C([C@@H](O)C(=O)[C@@]21C)C3(C)C` (stereo partly shown) [Compound 4524], the IC50 was < 1 nM.

Consider `COC(=O)O[C@H]1C[C@H]2OC[C@@]2(OC(C)=O)C2[C@H](OC(=O)c3ccccc3)[C@]3(O)C[C@H](OC(=O)[C@H](O)[C@@H](NC(=O)OC(C)(C)C)c4ccco4)C(C)=C([C@@H](O)C(=O)[C@@]21C)C3(C)C` (stereo partly shown) [Compound 4533], for which the IC50 is < 1 nM.

For `CC(=O)O[C@H]1C[C@H]2OC[C@@]2(OC(C)=O)C2[C@H](OC(=O)c3ccccc3)[C@]3(O)C[C@H](OC(=O)[C@H](O)[C@@H](NC(=O)OC(C)(C)C)C4CC4)C(C)=C([C@@H](O)C(=O)[C@@]21C)C3(C)C` (stereo partly shown) [Compound 4555], the IC50 was < 1 nM.

For the molecule `COC(=O)O[C@H]1C[C@H]2OC[C@@]2(OC(C)=O)C2[C@H](OC(=O)c3ccccc3)[C@]3(O)C[C@H](OC(=O)[C@H](O)[C@@H](NC(=O)OC(C)(C)C)C4CC4)C(C)=C([C@@H](O)C(=O)[C@@]21C)C3(C)C` (stereo partly shown) [Compound 4566], the IC50 was < 1 nM.

On to `COC(=O)O[C@H]1C[C@H]2OC[C@@]2(OC(C)=O)C2[C@H](OC(=O)c3ccccc3)[C@]3(O)C[C@H](OC(=O)[C@H](O)[C@@H](NC(=O)OC(C)(C)C)c4ccco4)C(C)=C([C@@H](O)C(=O)[C@@]21C)C3(C)C` (stereo partly shown) [Compound 4575], for which the IC50 is < 1 nM.

As to `COC(=O)O[C@H]1C[C@H]2OC[C@@]2(OC(C)=O)C2[C@H](OC(=O)c3ccccc3)[C@]3(O)C[C@H](OC(=O)[C@H](O)[C@@H](NC(=O)OCC(C)C)c4ccoc4)C(C)=C([C@@H](O)C(=O)[C@@]21C)C3(C)C` (stereo partly shown) [Compound 4584], the IC50 was < 10 nM.

For `CCOC(=O)O[C@H]1C[C@H]2OC[C@@]2(OC(C)=O)C2[C@H](OC(=O)c3ccccc3)[C@]3(O)C[C@H](OC(=O)[C@H](O)[C@@H](NC(=O)OCC(C)C)c4ccoc4)C(C)=C([C@@H](O)C(=O)[C@@]21C)C3(C)C` (stereo partly shown) [Compound 4624], the IC50 was < 10 nM.

Take `CCOC(=O)O[C@H]1C(=O)[C@@]2(C)C([C@H](OC(=O)c3ccccc3)[C@]3(O)C[C@H](OC(=O)[C@H](O)[C@@H](NC(=O)OCC(C)C)c4ccoc4)C(C)=C1C3(C)C)[C@]1(OC(C)=O)CO[C@@H]1C[C@@H]2O` (stereo partly shown) [Compound 4636]: the IC50 is < 10 nM.

Take `COC(=O)O[C@H]1C[C@H]2OC[C@@]2(OC(C)=O)C2[C@H](OC(=O)c3ccccc3)[C@]3(O)C[C@H](OC(=O)[C@H](O)[C@H](C=C(C)C)NC(=O)OCC(C)C)C(C)=C([C@@H](O)C(=O)[C@@]21C)C3(C)C` (stereo partly shown) [Compound 4644]: the IC50 was < 10 nM.

In the case of `COC(=O)O[C@H]1C[C@H]2OC[C@@]2(OC(C)=O)C2[C@H](OC(=O)c3ccccc3)[C@]3(O)C[C@H](OC(=O)[C@H](O)[C@@H](NC(=O)OCC(C)C)c4ccco4)C(C)=C([C@@H](O)C(=O)[C@@]21C)C3(C)C` (stereo partly shown) [Compound 4656], the IC50 was < 1 nM.

The experiment is the same for the next values; noted with them: HCT116 colony formation; 72 h drug incubation, colonies counted after 7 days; Example 5, C-7 ester/C-10 hydroxy taxanes; read-out: IN VITRO ID 50 (nm) HCT116.
For `CCCC(=O)O[C@H]1C[C@H]2OC[C@@]2(OC(C)=O)C2[C@H](OC(=O)c3ccccc3)[C@]3(O)C[C@H](OC(=O)[C@H](O)[C@@H](NC(=O)OC(C)(C)C)c4ccsc4)C(C)=C([C@@H](O)C(=O)[C@@]21C)C3(C)C` (stereo partly shown) [Compound 4446], the IC50 was < 1 nM.

For `CCCC(=O)O[C@H]1C[C@H]2OC[C@@]2(OC(C)=O)C2[C@H](OC(=O)c3ccccc3)[C@]3(O)C[C@H](OC(=O)[C@H](O)[C@@H](NC(=O)c4cccs4)c4cccs4)C(C)=C([C@@H](O)C(=O)[C@@]21C)C3(C)C` (stereo partly shown) [Compound 4454], the IC50 was < 1 nM.

Take `CCCC(=O)O[C@H]1C[C@H]2OC[C@@]2(OC(C)=O)C2[C@H](OC(=O)c3ccccc3)[C@]3(O)C[C@H](OC(=O)[C@H](O)[C@@H](NC(=O)OC(C)(C)C)c4ccco4)C(C)=C([C@@H](O)C(=O)[C@@]21C)C3(C)C` (stereo partly shown) [Compound 4499]: the IC50 is < 1 nM.

Regarding `CCC(=O)O[C@H]1C[C@H]2OC[C@@]2(OC(C)=O)C2[C@H](OC(=O)c3ccccc3)[C@]3(O)C[C@H](OC(=O)[C@H](O)[C@@H](NC(=O)OCC(C)C)c4ccsc4)C(C)=C([C@@H](O)C(=O)[C@@]21C)C3(C)C` (stereo partly shown) [Compound 4544], the IC50 was < 10 nM.

Turning to `CCCC(=O)O[C@H]1C[C@H]2OC[C@@]2(OC(C)=O)C2[C@H](OC(=O)c3ccccc3)[C@]3(O)C[C@H](OC(=O)[C@H](O)[C@@H](NC(=O)OCC(C)C)c4ccsc4)C(C)=C([C@@H](O)C(=O)[C@@]21C)C3(C)C` (stereo partly shown) [Compound 4600], the IC50 was < 10 nM.

Turning to `CCCC(=O)O[C@H]1C[C@H]2OC[C@@]2(OC(C)=O)C2[C@H](OC(=O)c3ccccc3)[C@]3(O)C[C@H](OC(=O)[C@H](O)[C@@H](NC(=O)OCC(C)C)c4ccco4)C(C)=C([C@@H](O)C(=O)[C@@]21C)C3(C)C` (stereo partly shown) [Compound 4616], the IC50 is < 1 nM.
